Experimental findings from US20240018123A1, “COMPOUND FOR INHIBITING OR DISINTEGRATING ANDROGEN RECEPTOR, AND PHARMACEUTICAL USE THEREOF” (KOREA RESEARCH INSTITUTE OF CHEMICAL TECHNOLOGY, priority 2020, published 2024) are described below.

The data set concerns VCaP cells. As to the kind of experiment: Cytotoxicity assessment (Cell-titer-glo cell viability), VCaP. The conditions noted are these: read-out: VCaP (CC50); VCaP cells, 6 days of treatment, Cell-titer-glo, vs DMSO.

For orientation: CC50 means the concentration at which the toxic effect on the cells reaches its halfway point.

Turning to `CC1(C)C(NC(=O)c2ccc(-n3cc(CCOCCOCCNC(=O)C4CN(c5ccc6nnn(C7CCC(=O)NC7=O)c(=O)c6c5)C4)nn3)cc2)C(C)(C)C1Oc1ccc(C#N)c(Cl)c1` (stereo not drawn) [Example 157, N-(2-(2-(2-(1-(4-(((1r,3r)-3-(3-chloro-4-cyanophenoxy)-2,2,4,4-tetramethylcyclobutyl)carbamoyl)phenyl)-1H-1,2,3-triazol-4-yl)ethoxy)ethoxy)ethyl)-1-(3-(2,6-dioxopiperidin-3-yl)-4-oxo-3,4-dihydrobenzo[d][1,2,3]triazin-6-yl)azetidine-3-carboxamide], the CC50 came to 32.1 nM.
In the case of `CC1(C)C(NC(=O)c2ccc(-n3cc(CCOCCOCCNC(=O)C4CCN(c5ccc6nnn(C7CCC(=O)NC7=O)c(=O)c6c5)CC4)nn3)cc2)C(C)(C)C1Oc1ccc(C#N)c(Cl)c1` (stereo not drawn) [Example 158, N-(2-(2-(2-(1-(4-(((1r,3r)-3-(3-chloro-4-cyanophenoxy)-2,2,4,4-tetramethylcyclobutyl)carbamoyl)phenyl)-1H-1,2,3-triazol-4-yl)ethoxy)ethoxy)ethyl)-1-(3-(2,6-dioxopiperidin-3-yl)-4-oxo-3,4-dihydrobenzo[d][1,2,3]triazin-6-yl)piperidine-4-carboxamide] it was 38.8 nM; in that of `CC1(C)C(NC(=O)c2ccc(-n3cc(CCOCCOCCNC(=O)CNc4ccc5nnn(C6CCC(=O)NC6=O)c(=O)c5c4)nn3)cc2)C(C)(C)C1Oc1ccc(C#N)c(Cl)c1` (stereo not drawn) [Example 159, N-((1r,3r)-3-(3-chloro-4-cyanophenoxy)-2,2,4,4-tetramethylcyclobutyl)-4-(4-(2-(2-(2-(2-((3-(2,6-dioxopiperidin-3-yl)-4-oxo-3,4-dihydrobenzo[d][1,2,3]triazin-6-yl)amino)acetamido)ethoxy)ethoxy)ethyl)-1H-1,2,3-triazol-1-yl)benzamide], 109 nM.
